pIC50: −log10 of the molar value.

What all share (assay type): cell-based
Experiment [1] concerns the target T1, human TLR7 (Homo sapiens, UniProt Q9NYK1).
T1 construct: host or cells: HEK-Blue cells
T1 sequence (Q9NYK1 27-1049): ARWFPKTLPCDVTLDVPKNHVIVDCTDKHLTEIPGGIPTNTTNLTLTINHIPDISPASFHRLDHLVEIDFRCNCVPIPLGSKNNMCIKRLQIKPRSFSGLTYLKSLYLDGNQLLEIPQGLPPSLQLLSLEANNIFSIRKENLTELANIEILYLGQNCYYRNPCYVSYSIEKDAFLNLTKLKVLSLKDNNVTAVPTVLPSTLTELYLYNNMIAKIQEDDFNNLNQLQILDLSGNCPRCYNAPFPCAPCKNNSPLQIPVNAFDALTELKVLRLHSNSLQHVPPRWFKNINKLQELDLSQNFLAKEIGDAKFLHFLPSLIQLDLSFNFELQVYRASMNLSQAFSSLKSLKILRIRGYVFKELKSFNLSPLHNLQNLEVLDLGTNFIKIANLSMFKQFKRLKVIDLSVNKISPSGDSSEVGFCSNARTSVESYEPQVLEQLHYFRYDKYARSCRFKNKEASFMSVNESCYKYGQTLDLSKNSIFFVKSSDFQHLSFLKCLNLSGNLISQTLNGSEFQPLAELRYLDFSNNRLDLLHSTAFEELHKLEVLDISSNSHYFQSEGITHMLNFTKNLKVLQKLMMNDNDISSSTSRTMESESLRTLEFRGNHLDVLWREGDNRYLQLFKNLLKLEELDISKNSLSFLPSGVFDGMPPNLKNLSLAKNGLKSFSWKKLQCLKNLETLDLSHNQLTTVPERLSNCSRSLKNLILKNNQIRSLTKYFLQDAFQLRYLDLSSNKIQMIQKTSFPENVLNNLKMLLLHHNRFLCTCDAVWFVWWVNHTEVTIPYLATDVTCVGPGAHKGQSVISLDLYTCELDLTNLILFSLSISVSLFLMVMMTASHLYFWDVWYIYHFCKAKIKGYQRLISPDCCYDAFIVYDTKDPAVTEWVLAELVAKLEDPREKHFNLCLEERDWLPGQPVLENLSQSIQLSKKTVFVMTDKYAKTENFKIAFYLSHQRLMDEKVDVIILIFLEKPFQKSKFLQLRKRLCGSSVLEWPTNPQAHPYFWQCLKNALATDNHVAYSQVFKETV
The experiment can be described thus: TLR7 inhibition reporter assay (HEK-Blue, SEAP). The following applies: HEK-Blue cells overexpressing human TLR7, ligand gardiquimod 2.5 μM, 22 hour incubation. The method, then:
(§1) TLR7/8/9 Inhibition Reporter Assays
(§2) HEK-Blue™-cells (Invivogen) overexpressing human TLR7. TLR8 or TLR9 receptors were used for screening inhibitors of these receptors using an inducible SEAP (secreted embryonic alkaline phosphatase) reporter gene under the control of the IFN-β minimal promoter fused to five NF-κB and AP-1-binding sites. Cells are seeded into Greiner 384 well plates (15000 cells per well) that are pre dispensed (by ECHO) with testing compounds in DMSO to yield a final dose response concentration range of 0.85 nM-50 μM. After a 60 minute compound pre-treatment in 37 degree incubator, the cells are then stimulated with a TLR7 ligand (gardiquimod at a final concentration of 2.5 μM), TLR8 ligand (R848 at a final concentration of 14.25 μM) or TLR9 ligand (ODN2006 at a final concentration of 200 nM) to activate NF-κB and AP-1 which induce the production of SEAP. After a 22 hour incubation at 37° C., 5% CO2, SEAP levels are determined with the addition of HEK-Blue™ Detection reagent (Invivogen), a cell culture medium that allows for detection of SEAP, according to manufacturer's specifications. The percent inhibition is determined as the % reduction in the HEK-Blue signal present in […].
A general note: In a reporter assay the amount or activity of a reporter protein is the signal.

Experiment [2] addresses T2, human TLR8 (Homo sapiens, UniProt Q9NR97).
T2 construct: host or cells: HEK-Blue cells
T2 sequence (Q9NR97 27-1041): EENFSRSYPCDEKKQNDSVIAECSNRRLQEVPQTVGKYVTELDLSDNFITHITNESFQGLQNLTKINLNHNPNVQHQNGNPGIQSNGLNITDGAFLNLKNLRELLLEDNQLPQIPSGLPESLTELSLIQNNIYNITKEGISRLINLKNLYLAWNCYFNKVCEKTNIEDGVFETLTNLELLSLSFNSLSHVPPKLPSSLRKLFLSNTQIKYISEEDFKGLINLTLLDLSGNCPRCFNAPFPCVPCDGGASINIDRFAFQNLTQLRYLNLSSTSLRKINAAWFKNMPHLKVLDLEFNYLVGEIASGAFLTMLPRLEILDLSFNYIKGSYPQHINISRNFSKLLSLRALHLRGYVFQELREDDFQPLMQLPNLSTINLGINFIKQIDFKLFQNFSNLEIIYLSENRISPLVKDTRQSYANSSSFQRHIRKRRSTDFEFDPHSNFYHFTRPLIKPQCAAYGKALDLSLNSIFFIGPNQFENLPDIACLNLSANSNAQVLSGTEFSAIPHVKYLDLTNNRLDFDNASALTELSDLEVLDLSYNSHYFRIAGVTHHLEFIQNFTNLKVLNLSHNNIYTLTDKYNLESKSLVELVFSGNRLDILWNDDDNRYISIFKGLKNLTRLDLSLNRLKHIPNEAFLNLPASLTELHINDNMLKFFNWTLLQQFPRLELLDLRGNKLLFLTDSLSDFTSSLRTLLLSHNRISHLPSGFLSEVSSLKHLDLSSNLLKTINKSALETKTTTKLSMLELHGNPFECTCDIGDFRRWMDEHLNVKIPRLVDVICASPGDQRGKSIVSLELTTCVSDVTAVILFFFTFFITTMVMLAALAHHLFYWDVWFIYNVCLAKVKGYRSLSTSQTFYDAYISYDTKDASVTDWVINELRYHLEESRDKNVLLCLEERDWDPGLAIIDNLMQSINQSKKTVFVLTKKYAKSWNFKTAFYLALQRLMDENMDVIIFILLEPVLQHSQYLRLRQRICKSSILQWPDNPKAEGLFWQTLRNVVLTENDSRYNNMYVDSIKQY
The experiment in a line: TLR8 inhibition reporter assay (HEK-Blue, SEAP). The conditions noted are these: HEK-Blue cells overexpressing human TLR8, ligand R848 14.25 μM, 22 hour incubation. Here is the method: as §1, §2

The target in experiment [3] is T3, human TLR9 (Homo sapiens, UniProt Q9NR96).
T3 construct: host or cells: HEK-Blue cells
T3 sequence (Q9NR96 26-1032): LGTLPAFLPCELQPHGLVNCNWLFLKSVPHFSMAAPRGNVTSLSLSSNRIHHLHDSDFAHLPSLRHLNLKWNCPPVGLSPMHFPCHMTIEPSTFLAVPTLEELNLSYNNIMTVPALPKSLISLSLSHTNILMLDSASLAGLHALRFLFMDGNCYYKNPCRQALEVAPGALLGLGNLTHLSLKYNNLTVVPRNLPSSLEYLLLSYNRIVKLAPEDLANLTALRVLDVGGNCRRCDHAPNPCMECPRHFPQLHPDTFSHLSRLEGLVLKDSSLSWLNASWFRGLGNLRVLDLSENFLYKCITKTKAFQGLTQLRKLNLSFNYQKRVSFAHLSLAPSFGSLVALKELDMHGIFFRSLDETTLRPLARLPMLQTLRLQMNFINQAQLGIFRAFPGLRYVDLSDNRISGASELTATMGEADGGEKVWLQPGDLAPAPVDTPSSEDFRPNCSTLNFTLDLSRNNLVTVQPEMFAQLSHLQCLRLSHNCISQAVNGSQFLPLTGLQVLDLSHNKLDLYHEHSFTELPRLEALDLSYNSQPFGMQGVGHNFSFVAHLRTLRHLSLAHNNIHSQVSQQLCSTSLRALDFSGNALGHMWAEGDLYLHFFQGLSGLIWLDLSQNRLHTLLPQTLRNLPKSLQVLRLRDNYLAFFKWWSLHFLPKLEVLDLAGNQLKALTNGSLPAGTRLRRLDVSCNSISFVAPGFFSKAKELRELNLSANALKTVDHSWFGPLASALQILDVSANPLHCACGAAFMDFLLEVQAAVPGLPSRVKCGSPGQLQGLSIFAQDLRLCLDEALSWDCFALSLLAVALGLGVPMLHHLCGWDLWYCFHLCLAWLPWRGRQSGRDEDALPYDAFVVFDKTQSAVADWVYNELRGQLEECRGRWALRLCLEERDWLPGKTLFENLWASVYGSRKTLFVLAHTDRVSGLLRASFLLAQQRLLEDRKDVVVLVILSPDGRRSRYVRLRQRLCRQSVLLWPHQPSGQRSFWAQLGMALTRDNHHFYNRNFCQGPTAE
The experiment in a line: TLR9 inhibition reporter assay (HEK-Blue, SEAP). The conditions noted are these: HEK-Blue cells overexpressing human TLR9, ligand ODN2006 200 nM, 22 hour incubation. The method, then:
as §1, §2

The pIC50 is the IC50 on a negative log10 scale, so that one unit is a factor of ten. Regarding `Cn1c(-c2ccc(S(C)(=O)=O)cc2)nc2ncc(C3CCN(C4CCN(C5CC5)CC4)CC3)cc21` [Example 16, 6-(1′-cyclopropyl-[1,4′-bipiperidin]-4-yl)-1-methyl-2-(4-(methylsulfonyl)phenyl)-1H-imidazo[4,5-b]pyridine], the pIC50 was less than 4.60 in experiment [1], less than 4.60 in experiment [2] and 5.85 in experiment [3].

With `Cc1cc(C2CCN(C3CCN(C4CCOCC4)CC3)CC2)nc2c1nc(-c1ccc(S(C)(=O)=O)cc1)n2C` [Example 25, 3,7-dimethyl-2-(4-(methylsulfonyl)phenyl)-5-(1′-(tetrahydro-2H-pyran-4-yl)-[1,4′-bipiperidin]-4-yl)-3H-imidazo[4,5-b]pyridine], the figures for the pIC50 in experiment [1], in experiment [2] and in experiment [3] were 5.39, less than 4.30 and 7.38, respectively.

Consider `CC(C)N1CCC(N2CCC(c3ccc4nc(-c5ccc(S(C)(=O)=O)cc5)n(C)c4n3)CC2)CC1` [Example 17, 5-(1′-isopropyl-[1,4′-bipiperidin]-4-yl)-3-methyl-2-(4-(methylsulfonyl)phenyl)-3H-imidazo[4,5-b]pyridine], for which the pIC50 in experiment [1] is 4.74; in experiment [2], less than 4.30; in experiment [3], 7.15.

As for `Cc1cc(C2CCN(C3CC4CCC(C3)N4C(C)C)CC2)nc2c1nc(-c1ccc(S(C)(=O)=O)cc1)n2C` (single isomer, unassigned) [Example 26, 5-(1-(8-isopropyl-8-azabicyclo[3.2.1]octan-3-yl)piperidin-4-yl)-3,7-dimethyl-2-(4-(methylsulfonyl)phenyl)-3H-imidazo[4,5-b]pyridine], the pIC50 was 5.00 in experiment [1], less than 4.30 in experiment [2] and 7.24 in experiment [3].

Consider `COc1ccc(-c2nc3ccc(-c4ccc(N5CCN(C(C)C)CC5)cc4)nc3n2C)cc1OC` [Example 52, 2-(3,4-dimethoxyphenyl)-5-(4-(4-isopropylpiperazin-1-yl)phenyl)-3-methyl-3H-imidazo[4,5-b]pyridine], for which the pIC50 was 5.92 in experiment [1], less than 4.30 in experiment [2] and 6.19 in experiment [3].

For `COc1cc(-c2nc3c(C)cc(C4CCN([C@H]5C[C@@H]6CN(C7CCC7)C[C@@H]6C5)CC4)nc3n2C)cn2ncnc12` [Example 42, 5-(1-((3aR,5s,6aS)-2-cyclobutyloctahydrocyclopenta[c]pyrrol-5-yl)piperidin-4-yl)-2-(8-methoxy-[1,2,4]triazolo[1,5-a]pyridin-6-yl)-3,7-dimethyl-3H-imidazo[4,5-b]pyridine], the results for the pIC50 in experiment [1], in experiment [2] and in experiment [3] were 4.77, less than 4.30 and 7.08, respectively.

As to `COCCN1C[C@H]2C[C@H](N3CCC(c4cc(C)c5nc(-c6cc(OC)c7ncnn7c6)n(C)c5n4)CC3)C[C@H]2C1` [Example 46, 2-(8-methoxy-[1,2,4]triazolo[1,5-a]pyridin-6-yl)-5-(1-((3aR,5s,6aS)-2-(2-methoxyethyl)octahydrocyclopenta[c]pyrrol-5-yl)piperidin-4-yl)-3,7-dimethyl-3H-imidazo[4,5-b]pyridine], the pIC50 in experiment [1] is 6.44; in experiment [2], less than 4.30; in experiment [3], 7.57.

With `CC(C)CN1CCC(N2CCC(c3cnc4nc(-c5ccc(S(C)(=O)=O)cc5)n(C)c4c3)CC2)CC1` [Example 15, 6-(1′-isobutyl-[1,4′-bipiperidin]-4-yl)-1-methyl-2-(4-(methylsulfonyl)phenyl)-1H-imidazo[4,5-b]pyridine], the pIC50 in experiment [1] was 5.19; in experiment [2] it was less than 4.60; in experiment [3] it was 6.80.

`Cc1cc(C2CCN(C3CCN(CC(C)(C)O)CC3)CC2)nc2c1nc(-c1ccc(S(C)(=O)=O)cc1)n2C` [Example 22, 1-(4-(3,7-dimethyl-2-(4-(methylsulfonyl)phenyl)-3H-imidazo[4,5-b]pyridin-5-yl)-[1,4′-bipiperidin]-1′-yl)-2-methylpropan-2-ol]: the pIC50 is 5.89 in experiment [1], less than 4.60 in experiment [2] and 7.59 in experiment [3].

Consider `CC(C)N1CCN(c2ccc(-c3cnc4nc(-c5ccc(S(C)(=O)=O)cc5)n(C)c4c3)cc2)CC1` [Example 49, 6-(4-(4-isopropylpiperazin-1-yl)phenyl)-1-methyl-2-(4-(methylsulfonyl)phenyl)-1H-imidazo[4,5-b]pyridine], for which the pIC50 was 5.38 in experiment [1], 5.57 in experiment [2] and 6.46 in experiment [3].

The values are drawn from patent publication US20250177363A1, “SUBSTITUTED IMIDAZOPYRIDINYL COMPOUNDS USEFUL AS INHIBITORS OF TLR9” (Bristol-Myers Squibb Company, priority 2022, published 2025).
